Series [1] addresses T1, MtbPRPPase (phosphoribosylpyrophosphate synthetase) (Mycobacterium tuberculosis, UniProt P9WKE3).
T1 construct: gene prs
The series is described as follows: […]; inhibition curve and steady-state kinetics ([…] Pi; IC50 […] at […] Pi). The format is biochemical.

Series [2] has as its target T1, MtbPRPPase (phosphoribosylpyrophosphate synthetase). The series is described as follows: biochemical.
The series “SEC” deals with the molecule itself. Kind of series: SEC.

Turning to `Nc1ncnc2c1ncn2[C@@H]1O[C@H](COP(=O)(O)OP(=O)(O)O)[C@@H](O)[C@H]1O` [ADP], half-maximal inhibition in series [1] (IC50) required 400 µM.

`Nc1nc2c(ncn2[C@@H]2O[C@H](COP(=O)(O)OP(=O)(O)O)[C@@H](O)[C@H]2O)c(=O)[nH]1` [GDP]: the IC50 (commonly the midpoint of a concentration-inhibition curve) in series [2] is above 5000 µM.

B1: Mycobacterium tuberculosis phosphoribosylpyrophosphate synthetase (enzyme)
chain: MSHDWTDNRKNLMLFAGRAHPELAEQVAKELDVHVTSQDAREFANGEIFVRFHESVRGCDAFVLQSCPAPVNRWLMEQLIMIDALKRGSAKRITAVMPFYPYARQDKKHRGREPISARLIADLLKTAGADRIVTVDLHTDQIQGFFDGPVDHMRGQNLLTGYIRDNYPDGNMVVVSPDSGRVRIAEKWADALGGVPLAFIHKTRDPRVPNQVVSNRVVGDVAGRTCVLIDDMIDTGGTIAGAVALLHNDGAGDVIIAATHGVLSDPAAQRLASCGAREVIVTNTLPIGEDKRFPQLTVLSIAPLLASTIRAVFENGSVTGLFDGDA
notes: also called MtbPRPPase; M. tuberculosis PRPPase; not shown: His6, N-terminal, kept
Consider B1, for which the stoichiometry N (usually a count of units in the complex or per binding partner) in the series “SEC” was found to be 6.

The record behind these values is article PMC2981568 (PLoS ONE, 2010).
